Where a chain is given by its changes, count along the chain named.
Experiments:
[1] = biological target: T1, hOAT (human ornithine δ-aminotransferase) (Homo sapiens, UniProt P04181); test: thermal denaturation followed by CD at […] nm, holo versus apo; type: binding; conditions: 50 mM Hepes, pH 7.4, 0.5 M NaCl; tetrameric form; covalent (internal aldimine with Lys292)
T1 construct: gene OAT; untagged, pET43a, E. coli BL21(DE3)pLysS; DEAE and Superdex 200; tetramer in equilibrium with dimer, dimer is the functional unit
T1 sequence (P04181 26-439): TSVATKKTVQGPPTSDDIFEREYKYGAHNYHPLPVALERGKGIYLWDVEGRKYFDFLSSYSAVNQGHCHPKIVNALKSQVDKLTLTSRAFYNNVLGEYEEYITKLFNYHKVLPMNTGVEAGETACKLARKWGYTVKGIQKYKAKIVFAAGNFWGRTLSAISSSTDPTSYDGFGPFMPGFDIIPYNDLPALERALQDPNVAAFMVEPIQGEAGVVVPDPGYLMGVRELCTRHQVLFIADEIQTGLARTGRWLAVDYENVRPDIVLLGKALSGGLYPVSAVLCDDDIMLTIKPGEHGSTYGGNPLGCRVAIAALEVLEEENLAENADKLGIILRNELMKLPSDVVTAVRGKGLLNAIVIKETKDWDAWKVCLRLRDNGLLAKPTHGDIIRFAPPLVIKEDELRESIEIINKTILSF

[2] = biological target: T2, hOAT (human ornithine δ-aminotransferase) (Homo sapiens, UniProt P04181, R217A); test: quenching of intrinsic fluorescence of apoenzyme at […] nm; type: binding; conditions: read-out: KD(PLP)
T2 construct: gene OAT; untagged, pET43a, E. coli BL21(DE3)pLysS; DEAE and Superdex 200; tetramer in equilibrium with dimer, dimer is the functional unit
T2 sequence (P04181 26-439 R217A): T1 sequence (P04181 26-439) with R192A

## Cc1ncc(COP(=O)(O)O)c(C=O)c1O [PLP]
[1]
  dTm (apparent Tm, holo minus apo): ~ 21 °C
[2]
  Kd: 0.28 ± 0.3 µM
